How the values were obtained:
[1] = Peptide stability in human plasma; format: in vitro ADME; details: 100 μg/mL, 37° C.; FIG. 4, 15
Experimental: (§1) The stability of peptides was also tested in mouse and human plasma. Briefly, a certain amount of peptides and eucatropine powder (positive control) was accurately weighed. Test compounds were dissolved in 50% methanol-water solution and diluted to 20 mg/mL, and eucatropine was dissolved in dimethylsulfoxide (DMSO) and diluted to 10 mM, as a stock solution. Eucatropine stock solution was diluted to 0.2 mM with DMSO as a working solution. A stop reagent was prepared containing 200 ng/mL midazolam and tolbutamide in acetonitrile. A volume of 300 μL of stop solution was added to each well of a 96-well deep-well plate placed on ice beforehand.
(§2) For the stability studies, peptides and eucatropine were spiked into plasma respectively, mixed well, and then 100 μL of each mixture solution was transferred into the pre-cooled stop reagent as 0 time point sample. The remaining mixtures were incubated in a 37° C. water bath with shaking at 100 rpm (n=2). The final incubation concentration was 1 for eucatropine and 100 μg/mL for all test compounds.
(§3) At desired time points, 100 μL of incubation mixture was transferred to the stop reagent to precipitate proteins. Samples were vortexed and centrifuged at RCF 5000×g for 10 minutes, and supernatant was transferred to a test plate. The samples were analyzed by LC-MS/MS.
(§4) Slope was calculated by plotting the natural logarithm of the percentage of remaining amount of test compounds and time, and T1/2 was calculated in accordance with the following formula.
For stability in human plasma, the incubation time was 0, 30, 60 and 120 min for Peptide 1, Peptide 12, Peptide 16 and eucatropine.
The stability of peptides was also tested in rat, mouse and human plasma. Briefly, a certain amount of peptides and eucatropine powder (positive control) was accurately weighed. Test compounds were dissolved in 50% methanol-water solution and diluted to 20 mg/mL, and eucatropine was dissolved in dimethylsulfoxide (DMSO) and diluted to 10 mM, as a stock solution. Eucatropine stock solution was diluted to 0.2 mM with DMSO as a working solution. […]

[2] = Peptide stability in mouse plasma; format: in vitro ADME; details: 100 μg/mL, 37° C.; FIG. 3, 5, 14
Experimental: as §1, §2, §3, §4
For stability in mouse plasma, the incubation time was 0, 5, 15, 30 and 60 min for Peptide 1 and eucatropine; 0, 15, 30, 60, 120, 240 and 480 min for Peptide 12, Peptide 16 and Peptide 29.
In another stability study in mouse plasma, the incubation time was 0, 30, 60 and 120 min for Peptide 2 and eucatropine; 0, 30, 60, 120, 240 and 960 min for Peptide 52 and Peptide 54.
as §1, with “tested in rat, mouse and” for “tested in mouse and”
as §2, with “was 1 μM for eucatropine” for “was 1 for eucatropine”
For stability in mouse plasma, the incubation time was 0, 15, 30, 60 and 120 min for Peptide 1 and eucatropine; 0, 15, 30, 60, 120, and 240 min for Peptide 31.

[3] = Peptide stability in rat plasma; format: in vitro ADME; details: 100 μg/mL, 37° C.; FIG. 12, 13
Experimental: as §1, with “tested in rat, mouse and” for “tested in mouse and”
as §2, with “was 1 μM for eucatropine” for “was 1 for eucatropine”
as §3, §4
For stability in rat plasma, the incubation time was 0, 15, 30, 60 and 120 min for Peptide 1 and eucatropine, and 0, 15, 30, 60, 120, and 240 min for Peptide 12, Peptide 16, Peptide 29 and Peptide 31.
In another stability study in rat plasma, the incubation time was 0, 30, 60 120 and 240 min for Peptide 2, Peptide 52, Peptide 64 and eucatropine.

[4] = Pharmacokinetics in rat, intravenous bolus; format: in vivo; details: male, Sprague-Dawley, plasma, RAT (IV), 25 mg/kg; for AUC(0-t): read-out: AUC(0-t); for AUC(0-inf): read-out: AUC(0-∞); for Cmax: read-out: Cmax
Experimental: (§5) After 7 days acclimation, male Sprague-Dawley (SD) rats weighing 210-250 g, or male C57BL/6 mice, weighing 19-24 g, in good health were used in the study. Peptide 1, Peptide 12 and Peptide 16 were dissolved in sterile normal saline and then they were injected via subcutaneous (sc) bolus or intravenous (iv) bolus at the dose level of 25 mg/kg. Three animals in each group were used for blood collection at the time point of 5 min, 15 min, 30 min, 1 h, 2 h, 4 h, 6 h, 8 h and 24 h post-dose. Blood samples (approximately 400 μL) were collected and placed into tubes containing EDTA-K2 and centrifuged at 8000 rpm for 6 minutes at 4° C. to separate plasma from the samples. The resulting plasma was stored frozen at −80° C. until being analyzed. Plasma concentrations of peptides were determined using tandem mass spectrometry (LC-MS/MS) analysis. A non-compartmental module of WinNonlin® Professional 5.2 (Pharsight; St. Louis Mo.), was used to calculate PK parameters. The abbreviation AUC(0-t) represents area under the curve from the time of dosing to the time of the last observation, the AUC(0-∞) represents area under the curve from the time of dosing to infinity, and the Cmax represents maximum concentration detected.

pancreatic islets = experiment: Glucose-stimulated insulin secretion (GSIS) of isolated islets; format: cell-based, rat; details: 12.0 mM glucose; 10 μg/mL peptide or 100 nM GLP-1; 60 min; FIG. 8
Experimental: The pancreases were procured from male adult Sprague-Dawley (SD) rats. After 7 days acclimation, the animals were sacrificed by cervical dislocation and the entire pancreas was removed and digested with collagenase to isolate islets. After digestion, islets were maintained at 37° C. in RPMI 1640 (Carlsbad Calif., USA) pH 7.4, containing 10% (v/v) fetal calf serum, 1% penicillin/streptomycin, and 10 mM glucose in a humid atmosphere (5% CO2/95% O2), without the addition of any compound (control), or with the addition of 100 nM glucagon like peptide-1 (GLP-1); or 10 μg/mL Peptide 1, Peptide 12, or Peptide 16, as summarized in Table 4 below. Cultured islets were rinsed in Krebs-Ringer bicarbonate buffer (KRB), pH 7.4, previously gassed with a mixture of CO2/O2 (5/95%), and pre-incubated in 1.0 ml of KRB containing 0.5% (w/v) BSA and 1.5 mM glucose at 37° C. for 45 min. After this period, groups of 5 islets were incubated in 0.6 ml KRB with the addition of 1.5 or 12.0 mM glucose, with or without the addition of peptides for 60 min. At the end of the incubation period, aliquots of the medium were collected for insulin quantitation.

[5] = Pharmacokinetics in mouse, subcutaneous bolus; format: in vivo; details: male, C57BL/6, plasma, MOUSE (SC), 25 mg/kg; for AUC(0-t): read-out: AUC(0-t); for AUC(0-inf): read-out: AUC(0-∞); for Cmax: read-out: Cmax
Experimental: as §5

AUC(0-t) [4] [ng·h/mL]	AUC(0-inf) [4] [ng·h/mL]	Cmax [4] [ng/mL]	AUC(0-t) [5] [ng·h/mL]	AUC(0-inf) [5] [ng·h/mL]	Cmax [5] [ng/mL]	Substance	stability in human plasma [1]	stability in mouse plasma [2]	stability in rat plasma [3]	glucose-stimulated insulin release vs islets without peptide (pancreatic islets)
–	–	–	–	–	–	Ac-IGLHDPSHGTLPNGS-NH2 [Peptide 31, Ac-IGLHDPSHGTLPNGS-NH2]	exhibited good stability in human plasma and were significantly more stable than INGAP-PP	exhibited good stability in mouse plasma and was more stable than INGAP-PP	exhibited good stability in rat plasma and were more stable than INGAP-PP	–
12200	12200	45200	11400	11400	14400	Ac-IGLHDPSHGTLPNGS-OH [Peptide 16, Ac-IGLHDPSHGTLPNGS-OH]	exhibited good stability in human plasma and were significantly more stable than INGAP-PP	exhibited good stability in mouse plasma and were more stable than INGAP-PP	exhibited good stability in rat plasma and were more stable than INGAP-PP	released significantly more insulin than those cultured without the addition of peptides
21.9	27.1	48.7	54.5	58.3	141	H-IGLHDPSHGTLPNGS-OH [Peptide 1, H-IGLHDPSHGTLPNGS-OH, reference compound]	–	–	–	no stimulation was observed
